Measurements taken from patent US20190048342A1, “CROSS-REGULATION OF TYPE I INTERFERON SIGNALING PATHWAYS” (THE METHODIST HOSPITAL SYSTEM, priority 2016, published 2019).

Key:
P. berghei ANKA = details: previous studies; cited from earlier work
P. yoelii YM [1] = assay: Daily parasitemia and mortality of mice after P. yoelii YM infection; assay type: in vivo, mouse
Experimental: (§1) The parasite Plasmodium yoelii YM, N67C and N67 have been previously described (Li, J. et al. Proc Natl Acad Sci USA 108:E374-382 (2011)). For plasmodium infection, 0.2 (low) or 2×10^6 iRBCs (otherwise, indicated specifically in the figure legend) suspended in 200 μl PBS from the donor mice were intraperitoneally injected into experimental mice. A higher parasite dose (1×10^7 iRBCs) was used in some experiments. Parasitemias were monitored daily by examination of Giemsa-stained thin tail blood smears. Female mice C57BL/6 (WT), Mavs^−/−, Mda5^−/−, Myd88^−/−, Sting^−/−, Trif^−/−, BDCA2-DTR, Tlr2^−/−, Tlr3^−/−, and Tlr4^−/− mice were purchased from The Jackson Laboratory. Tlr9^−/− mice, Tlr7^−/−, Rig-I^−/− mice, Irf3^−/−:Irf7^−/− mice, and cGAS^−/− mice were obtained. All mouse-related procedures were performed according to experimental protocols approved by the Animal Care and Welfare Committee at Houston Methodist Research Institute and in accordance with NIH-approved animal study protocol LMVR-11E.
(§2) To deplete pDCs, pDC-depleting functional-grade mAb (anti-mPDCA-1 IgG, clone JF05-1C2.4.1) and the corresponding isotype control IgG, which served as control, were purchased from Miltenyi Biotec (Auburn, Calif.). Two intraperitoneal injections of antibody (250 μg/mouse) per mouse were administered 12 h prior and after YM infection.
In Vivo Ready siRNAs were mixed with Invivofectamine 3.0 liposomes (Invitrogen) following the manufacturer's instructions and injected intravenously in a volume of 100 μl at a dose of 5 mg/kg. Mice were infected with P. yoelii YM (0.5×10^6 iRBCs) 48 h after siRNA treatment.
Deficient (Mda5^−/−, Mavs^−/−, and Sting^−/−) mice were crossed with BDCA2-DTR transgenic mice and treated with diphtheria toxin (DT, Sigma-Aldrich) intraperitoneally (i.p.) at a dose of 100-120 ng/mouse. pDCs were depleted by DT injection at 1 day before and 1, 3, and 5 days after P. yoelii YM infection.
The parasite Plasmodium yoelii YM and Plasmodium yoelii N67C have been previously described (Wu, J. et al. Proc Natl Acad Sci USA 111:E511-520 (2014); Li, J. et al. Proc Natl Acad Sci USA 108:E374-382 (2011)). For plasmodium infection, 0.2 (low) or 2×10^6 iRBCs (otherwise, indicated specifically in the figure legend) suspended in 200 μl PBS from the donor mice were intraperitoneally injected into experimental mice. Parasitemias were monitored daily by examination of Giemsa-stained thin tail blood smears. Female mice C57BL/6 (WT), Mavs^−/−, Mda5^−/−, Sting^−/−, BDCA2-DTR, zDC-DTR, Ifnar^−/−, and Rag2^−/− mice were purchased from The Jackson Laboratory. All mouse-related procedures were performed according to experimental protocols approved by the Animal Care and Welfare Committee at Houston Methodist Research Institute and in accordance with NIH-approved animal study protocol LMVR-11E.
To block type I IFN receptor, anti-mouse interferon α/β receptor antibodies (Leinco Technologies), in the amount of 500 μg in PBS at day 0, 2, 4, and 250 μg at day 6 after infection (or indicated specifically in the figure legend), were intraperitoneally injected into WT and deficient mice. Mouse IgG antibody was used as control, and parasitemias were monitored by daily Giemsa-stained blood smears. To test the role of type I IFN cytokines, C57BL/6 mice were first infected with P. yoelii YM, and then intravenously injected with 800 U/g mouse recombinant IFN-α and IFN-β, recombinant IL-6, or recombinant IFN-γ at the indicated time points. Bovine serum albumin (BSA, 0.1%) in PBS served as a control, and parasitemias were monitored by daily Giemsa-stained blood smears. To deplete pDCs, pDC-depleting functional-grade mAb (anti-mPDCA-1 IgG, clone JF05-1C2.4.1) was purchased from Miltenyi Biotec (Auburn, Calif.), and the corresponding isotype control IgG served as control. Two intraperitoneally injections of antibody (250 μg/mouse) per mouse were administered 12 h prior and after plasmodium YM infection or indicated specifically in the figure legend. […]

P. yoelii YM [2] = assay: Serum cytokine levels (ELISA) in mice after P. yoelii YM infection; assay type: in vivo, mouse
Experimental: as §1, §2
Mouse splenocytes were prepared from spleens cut into small fragments and digested with collagenase D (1 mg/ml, Sigma) and DNAse I (20 μg/ml, Sigma) in RPMI-1640 medium for 30 min. […] Cells were analyzed using the BD FACS Aria II. […]
In Vivo Ready siRNAs were mixed with Invivofectamine 3.0 liposomes (Invitrogen) following the manufacturer's instructions and injected intravenously in a volume of 100 μl at a dose of 5 mg/kg. […]
The parasite Plasmodium yoelii YM and Plasmodium yoelii N67C have been previously described (Wu, J. et al. Proc Natl Acad Sci USA 111:E511-520 (2014); Li, J. et al. Proc Natl Acad Sci USA 108:E374-382 (2011)). […] Parasitemias were monitored daily by examination of Giemsa-stained thin tail blood smears. […]

RNA polymerase III = assay: IFN-β mRNA in RAW264.7 cells after P. yoelii YM gDNA stimulation, with RNA polymerase III knockdown or inhibition; assay type: cell-based; details: siRNA 48 h or ML60218 pretreatment 24 h, then P. yoelii YM gDNA stimulation 6 h
Description: FIGS. 10A to 10G show type I IFN gene expression after P. yoelii YM gDNA or RNA stimulation and WT mice serum cytokine level after P. yoelii YM infection. […] Data are plotted as the mean±s.d. and are representative of three independent experiments. *P<0.05, **P<0.01, ***P<0.001 vs. corresponding control. ND, not detected; NS, not significant.
To understand the molecular mechanisms by which mice deficient in the cGAS, Sting, Mda5, or Mavs gene were resistant to P. yoelii YM infection, experiments were conducted to determine whether cGAS and MDA5 function as DNA/RNA sensors for detecting P. yoelii YM gDNAs or RNAs (FIG. 2a). Both purified P. yoelii YM gDNA and RNA could induce IFN-β mRNA expression in RAW264.7 cells (FIG. 2b). The ability of P. yoelii YM gDNA to induce type I IFN response was completely abolished upon DNase, but not RNase, treatment (FIG. 10a). Similarly, the stimulating activity of parasite RNA was abolished after treatment with RNase, but not DNase (FIG. 10a), which is in agreement with other studies showing that malaria RNA can be detected by MDA5 sensor (Liehl, P. et al. Nat Med 20:47-53 (2014); Wu, J. et al. Proc Natl Acad Sci USA 111:E511-520 (2014)). […]

[3] = Sting-/- mice, macrophage depletion at one day post infection, vs liposome control or treatment two days before
[4] = Mavs-/-:zDC-DTR mice, DT after 24 h of infection, vs untreated or DT four days before
[5] = WT mice, recombinant cytokine i.v. at 18 h post YM infection

Q: Which “protection of mice from ANKA infection” value (P. berghei ANKA) does the source give for “murine IFN-β: murine IFN-β of previous studies” here?
A: protect

Q: Which results are given for `O=P(O)(O)C(Cl)(Cl)P(=O)(O)O` [clodronate]?
A: host mortality (P. yoelii YM [1]; [3]): markedly increased parasitemia and host mortality; parasitemia (P. yoelii YM [1]; [3]): markedly increased parasitemia and host mortality; serum levels of IFN-α and IFN-β (P. yoelii YM [2]; Sting-/- mice, macrophage depletion two days before or one day after YM infection): did not affect

Q: For `Cc1c(-c2cc(NS(=O)(=O)c3ccccc3Cl)n(C)n2)sc2ccc(Cl)cc12` [ML60218], which “IFN-β mRNA expression” value (RNA polymerase III) is on record?
A: markedly inhibited

Q: Which results are given for diphtheria toxin [DT]?
A: sensitivity to P. yoelii YM infection based on parasitemia and survival (P. yoelii YM [1]; DT-treated Mavs-/-:BDCA2-DTR mice vs DT-treated Mavs-/- mice): sensitive to P. yoelii YM infection; parasitemia (P. yoelii YM [1]; [4]): increased parasitemia; time of death (P. yoelii YM [1]; [4]): died sooner; serum IFN-α and IFN-β (P. yoelii YM [2]; Mavs-/-:BDCA2-DTR mice treated with DT vs Mavs-/- mice treated with DT, 24 h after infection): markedly reduced; serum levels of IFN-α and IFN-β (P. yoelii YM [2]; Mavs-/-:zDC-DTR chimeric mice, DT four days before or one day post infection): no change

B1: IL-6: recombinant IL-6 injected intravenously (protein, UniProt P08505 25-211, looked up)
Interleukin-6: FPTSQVRRGDFTEDTTPNRPVYTTSQVGGLITHVLWEIVEMRKELCNGNSDCMNNDDALAENNLKLPEIQRNDGCYQTGYNQEICLLKISSGLLEYHSYLEYMKNNLKDNKKDKARVLQRDTETLIHIFNQEVKDLHKIVLPTPISNALLTDKLESQKEWLRTKTIQFILKSLEEFLKVTLRSTRQT
Q: For B1, which host mortality (P. yoelii YM [1]; [5]) is on record?
A: failed to do so

Q: And the parasitemia (P. yoelii YM [1]; [5])?
A: failed to do so

B2: IFN-γ: recombinant IFN-γ injected intravenously (protein, UniProt P01580 23-155, looked up)
Interferon gamma: HGTVIESLESLNNYFNSSGIDVEEKSLFLDIWRNWQKDGDMKILQSQIISFYLRLFEVLKDNQAISNNISVIESHLITTFFSNSKAKKDAFMSIAKFEVNNPQVQRQAFNELIRVVHQLLPESSLRKRKRSRC
Q: For B2, which host mortality (P. yoelii YM [1]; [5]) is on record?
A: failed to do so

Q: And the parasitemia (P. yoelii YM [1]; [5])?
A: slightly increased
